Assay results as given in patent US9469854B2, “Pharmaceutical composition for treating liver diseases” (Academia Sinica, priority 2014, dated 2016).

Assays:
[1] = system: miR-21-3p; assay: qRT-PCR microRNA assay in HepG2 cells; assay type: cell-based, human; conditions: HepG2, 40 μM berberine
Procedure: (§1) The human HepG2 cells and HEK 293T cells used in the following examples were originally obtained from the American Tissue Culture Collection (ATCC, USA). The human HCC HepG2 cell line was cultured in Minimum Essential Medium Eagle (Sigma) supplemented with 10% fetal bovine serum (FBS) (Invitrogen), 2.2 g/L of sodium bicarbonate (Sigma), 0.1 mM of non-essential amino acids (Caisson), 1 mM of sodium pyruvate (Invitrogen), and 10 of ml/L penicillin-streptomycin-amphotericin solution (Biological Industries). Human HEK-293T cells were maintained in high-glucose Dulbecco's modified eagle medium (Invitrogen) supplemented with 10% FBS and 3.7 g/L of sodium bicarbonate (Sigma). Both cell lines were cultured at 37° C. and 5% CO2. A 50 mM stock solution of berberine chloride (Sigma-Aldrich) was prepared in dimethyl sulfoxide (DMSO). Cells were treated with 40 μM of berberine chloride or 0.08% DMSO as the control. For induction of lipid droplets formation in cultured cells, 200 μM of oleic acid (Sigma-Aldrich) was added into the culture medium for 24 h. Total RNA was extracted using a TRIZOL reagent (Invitrogen) according to the manufacturer's protocol. The total RNA quantity was measured using a NanoDrop ND-1000 spectrophotometer (Nanodrop Technologies). The total RNA quality and integrity were assayed using an Agilent 2100 bioanalyzer with an RNA 6000 nano kit (Agilent Technologies). […] The microRNA expression levels were normalized to RNU6B levels.

[2] = system: miR-21-5p; assay: qRT-PCR microRNA assay in HepG2 cells; assay type: cell-based, human; conditions: HepG2, 40 μM berberine
Procedure: as §1

[3] = system: SPEBF2; assay: qRT-PCR mRNA expression in primary human hepatocytes; assay type: cell-based; conditions: PHH, 40 μM berberine, 4-8 h
Procedure: The primary human hepatocytes from Caucasian donors were purchased from Invitrogen and cultured following the manufacturer's instructions. The hepatocytes were thawed and transferred into cryopreserved hepatocytes recovery medium (CM7000, Invitrogen), centrifuging at room temperature, 100×g for 10 min. Then, the hepatocytes were diluted to seeding density with plating medium (CM3000, Invitrogen) and added into collagen I-coated plates (Invitrogen). These plates were incubated at 37° C. for 4-6 hours under 5% CO2 for forming a monolayer. Then, plating medium was replaced by overlay incubation medium (CM4000 and 0.35 mg/mL Geltrex™ Matrix, Invitrogen), and the incubation medium was replaced daily. In the following examples, hepatocytes form 3 to 4 donors were used for experiments.
A 50 mM stock solution of berberine chloride (Sigma-Aldrich) was prepared in dimethyl sulfoxide (DMSO). Cells were treated with 40 μM of berberine chloride or 0.08% DMSO as the control. For induction of lipid droplets formation in cultured cells, 200 μM of oleic acid (Sigma-Aldrich) was added into the culture medium for 24 h.
Total RNA was extracted using a TRIZOL reagent (Invitrogen) according to the manufacturer's protocol. The total RNA quantity was measured using a NanoDrop ND-1000 spectrophotometer (Nanodrop Technologies). […]

[4] = system: HepG2 cells; assay: Trypan blue dye exclusion assay (viable cell number); assay type: cell-based, human; conditions: HepG2, 50 nM mimic transfection 48 h vs NC mimic
Procedure: FIG. 6A represents the number of viable HepG2 cells transfected with 50 nM of miR-21-3p mimic or negative-control (NC) mimic for 48 h, which is quantified using trypan blue dye exclusion assay. The data are represented as the mean±standard deviation for 3 independent experiments. The asterisk mark “*” indicates a significant difference with P<0.05.
The HepG2 cells were transfected at a density of 5×10^4 cells per well in a 24-well culture plates with either 50 nM of hsa-miR-21-3p (miR-21-3p mimic) or negative-control mimic (NC mimic), or with either 100 nM of hsa-miR-21-3p inhibitor (miR-21-3p inhibitor) or negative-control inhibitor (NC inhibitor) by using the DharmaFECT 4 transfection reagent (Thermo Scientific Dharmacon) according to the manufacturer's instructions. Cells were incubated for 24 h or 48 h with a microRNA mimic or inhibitor prior to RNA purification for gene expression analysis, and were incubated for 72 h for protein expression analysis.

[5] = system: exon 23 of ACACB; assay: Reporter examination of miR-21-3p and ACACB (technology similar to Example 6); assay type: cell-based, human
Procedure: The HEK-293T and HepG2 cells were seeded at a density of 5×10^4 cells per well in a 24-well culture plate the day before transfection. The HEK-293T and HepG2 cells were tri-transfected with (1) any one of the above-mentioned pMIR-REPORT-3′ UTR construction (300 ng), (2) the control Renilla luciferase reporter plasmid pRL-TK from Promega (10 ng), and (3) 50 nM of hsa-miR-21-3p mimic or negative-control mimic by using the Lipofectamine 2000 transfection reagent (Invitrogen) according to the manufacturer's instructions. Luciferase assays were performed after transfection for 48 h by using the Dual Luciferase reporter assay kit (Promega) and the Paradigm detection platform (Beckman) according to the manufacturer's protocol. The firefly luciferase activity was normalized relative to the Renilla luciferase activity.

Compound | miR-21-3p level increase (qRT-PCR) ([1]; 1 h vs untreated control) [fold] | miR-21-3p level increase (qRT-PCR) ([1]; 2 h (peak) vs untreated control) [fold] | miR-21-3p level increase (qRT-PCR) ([1]; 8 h vs untreated control) [fold] | miR-21-5p level increase (qRT-PCR) ([2]; 2 h) [fold] | miR-21-5p expression change (qRT-PCR) ([2]; 4 h and 8 h) | mRNA expression of SPEBF2 [3] | viable cell numbers [4] | suppression of ACACB expression by binding exon 23 [5] [fold]
COc1ccc2cc3[n+](cc2c1OC)CCc1cc2c(cc1-3)OCO2 [berberine] | 2.1 | 3.5 | 2.8 | 2 | no significant differences | decreases | – | –
hsa-miR-21-3p (CAACACCAGUCGAUGGGCUGU; listed as RNA, chemistry not given here) [miR-21-3p mimic] | – | – | – | – | – | – | reduced the viable cell numbers | 1.4
